The compounds below were run on NO production in BV-2 cells [NO 생성; BV-2 세포] (assay: Nitric oxide (NO) quantification (nitrite, Griess reaction) in LPS-activated BV-2 cells). Conditions: 20 μM, LPS 0.2 ㎍/mL, 24 h co-treatment, nitrite by Griess at 540 nm.
Format: cell-based
In the case of “1-(2-메톡시펜에틸)-N-(4-메톡시벤질)-6-(메틸설포닐)-1H-피라졸로[3,4-d]피리미딘-4-아민 [화합물 23zb]”, the “NO (% of LPS)” value is reported as 49±2.9 % of LPS. With “N-(2-클로로벤질)-6-(메틸설파이닐)-1-페닐-1H-피라졸로[3,4-d]피리미딘-4-아민 [화합물 22f]” the “NO (% of LPS)” value was 58±3.7 % of LPS.

Same assay, conditions: 20 μM, LPS 0.2 ㎍/mL, 24 h co-treatment, nitrite by Griess at 540 nm, 1440 min
In the case of `CCCCNc1nc(NC(C)c2ccccc2)c2cnn(Cc3ccccc3)c2n1` (centres unmarked) [화합물 24f, 1-벤질-N6-뷰틸-N4-(1-페닐에틸)-1H-피라졸로[3,4-d]피리미딘-4,6-디아민], the “NO (% of LPS)” value is reported as 9±1 % of LPS. `CCCCNc1nc(NC(C)c2ccccc2)c2cnn(Cc3ccccc3)c2n1` (centres unmarked) [24i, 1-벤질-N6-뷰틸-N4-(1-페닐에틸)-1H-피라졸로[3,4-d]피리미딘-4,6-디아민] was tested, and the “NO (% of LPS)” value was 42±0.8 % of LPS.

Same assay, conditions: Mus musculus, BV-2, 24 h, 20 μM, LPS 0.2 ㎍/mL, 24 h co-treatment, nitrite by Griess at 540 nm
Compound `CSc1nc(NCc2ccccn2)c2c(-c3ccccc3)nn(-c3ccccc3)c2n1` [화합물 31f, 1-페닐-3-페닐-4-(피리딘-2-일)메틸아미노-6-(메틸티오)피라졸로[3,4-d]피리미딘] has an activity at 20 µM of 100 ± 5%. Work on `CSc1nc(NCc2ccccc2)c2cnn(-c3ccccc3)c2n1` [화합물 15a, 1-페닐-4-벤질아미노-6-(메틸티오)피라졸로[3,4-d]피리미딘] yielded an activity at 20 µM of 53 ± 12%. For `COc1ccccc1CCn1ncc2c(NCc3ccccc3C)nc(SC)nc21` [화합물 19g, N-(2-메톡시벤질)-1-(2-메톡시펜에틸)-6-(메틸티오)-1H-피라졸로[3,4-d]피리미딘-4-아민], the activity at 20 µM was 27.4 ± 0.7%. With `COc1cccc(CCn2ncc3c(NCc4ccc(F)cc4)nc(SC)nc32)c1` [화합물 18g, 1-(3-메톡시펜에틸)-N-(4-플루오로벤질)-6-(메틸티오)-1H-피라졸로[3,4-d]피리미딘-4-아민] the activity at 20 µM was 58 ± 4.8%. With `C=CCn1ncc2c(NCc3ccccc3C)nc(SC)nc21` [화합물 13h, N-(2-메틸벤질)-1-알릴-6-(메틸티오)-1H-피라졸로[3,4-d]피리미딘-4-아민] the activity at 20 µM was 25 ± 0.3%. For `CC(Nc1nc(S(C)(=O)=O)nc2c1cnn2Cc1ccccc1)C1CCCCC1` (centres unmarked) [화합물 23t, 1-벤질-N-(1-사이클로헥실에틸)-6-(메틸설포닐)-1H-피라졸로[3,4-d]피리미딘-4-아민], the activity at 20 µM was 42 ± 2.6%. `CSc1nc(NCc2ccc(Cl)cc2)c2cnn(C(C)(C)C)c2n1` [화합물 17j, N-(4-클로로벤질)-1-t-뷰틸-6-(methylthio)-1H-피라졸로[3,4-d]피리미딘-4-아민] showed an activity at 20 µM of 19 ± 3.9%. For `CSc1nc(NCCN2CCCCC2)c2cn[nH]c2n1` [6g, 4-(2-피페리딘-1-일)에틸아미노-6-(메틸티오)피라졸로[3,4-d]피리미딘], the activity at 20 µM was 102 ± 6%. `C=CCn1ncc2c(NCCO)nc(SC)nc21` [화합물 13c, 1-알릴-4-(1-하이드록시에틸)아미노-6-(메틸티오)피라졸로[3,4-d]피리미딘] gave an activity at 20 µM of 77 ± 7%. `CSc1nc(NC(c2ccccc2)c2ccc(Cl)cc2)c2cnn(-c3ccccc3)c2n1` (centres unmarked) [화합물 15z, N-((4-클로로페닐)(페닐)메틸)-6-(메틸티오)-1-페닐-1H-피라졸로[3,4-d]피리미딘-4-아민] showed an activity at 20 µM of 46 ± 0.6%. `CSc1nc(Cl)c(C(=O)c2ccccc2)c(Cl)n1` [compound 29, 1-[(4,6-다이클로로-2-(메틸티오)피리미딘)-5-일]-페닐케톤] was tested, and the activity at 20 µM was 35 ± 12%. In the case of `CSc1nc(NCCc2ccccc2)c2cnn(-c3ccccc3)c2n1` [화합물 15b, 1-페닐-4-(2-페닐에틸)아미노-6-(메틸티오)피라졸로[3,4-d]피리미딘], the activity at 20 µM is reported as 72 ± 8%. `COc1ccccc1CNc1nc(SC)nc2c1cnn2Cc1ccccc1` [화합물 16zc, N-(2-메톡시벤질)-1-벤질-6-(메틸티오)-1H-피라졸로[3,4-d]피리미딘-4-아민] gave an activity at 20 µM of 50 ± 1.1%. With `CSc1nc(Cl)c2cnn(-c3ccc(F)cc3)c2n1` [5h, 1-(4-플루오로페닐)-4-클로로-6-(메틸티오)피라졸로[3,4-d]피리미딘] the activity at 20 µM was 9 ± 42.2%. `COc1ccccc1CCn1ncc2c(NCc3ccc(F)cc3)nc(SC)nc21` [화합물 19d, 1-(2-메톡시펜에틸)-N-(4-플루오로벤질)-6-(메틸티오)-1H-피라졸로[3,4-d]피리미딘-4-아민] gave an activity at 20 µM of 40 ± 1.1%. With `CSc1nc(NC(C)c2ccc(C)cc2)c2cnn(-c3ccc(C)cc3)c2n1` (centres unmarked) [화합물 21i, 6-(메틸티오)-1-p-톨릴-N-(1-p-톨릴에틸)-1H-피라졸로[3,4-d]피리미딘-4-아민] the activity at 20 µM was 57 ± 1%. `CCCCNc1nc(SC)nc2c1cnn2Cc1ccccc1` [화합물 16zg, 1-벤질-N-뷰틸-6-(메틸티오)-1H-피라졸로[3,4-d]피리미딘-4-아민] was tested, and the activity at 20 µM was 55 ± 1.9%. `CSc1nc(NCCO)c2cnn(-c3ccccc3)c2n1` [화합물 15d, 1-페닐-4-(1-하이드록식에틸)아미노-6-(메틸티오)피라졸로[3,4-d]피리미딘] showed an activity at 20 µM of 68 ± 7%. Compound `COc1cccc(CNc2nc(S(C)(=O)=O)nc3c2cnn3CCc2ccccc2OC)c1` [화합물 23z, 1-(2-메톡시펜에틸)-N-(3-메톡시벤질)-6-(메틸설포닐)-1H-피라졸로[3,4-d]피리미딘-4-아민] has an activity at 20 µM of 51 ± 3.5%. Work on `COc1cccc(CCn2ncc3c(NCc4ccccc4Cl)nc([S+](C)[O-])nc32)c1` (centres unmarked) [화합물 22k, N-(2-클로로벤질)-1-(3-메톡시펜에틸)-6-(메틸설파이닐)-1H-피라졸로[3,4-d]피리미딘-4-아민] yielded an activity at 20 µM of 58 ± 2%. `CSc1nc2c(cnn2-c2ccccc2)c(=O)[nH]1` [8b, 1-페닐-6-(메틸티오)피라졸로[3,4-d]피리미딘-4-온] gave an activity at 20 µM of 75 ± 3%. In the case of `CC(Nc1nc(NCCO)nc2c1cnn2Cc1ccccc1)c1ccccc1` (centres unmarked) [화합물 24a, 2-(4-(1-페닐에틸아미노)-1-벤질-1H-피라졸로[3,4-d]피리미딘-6-일아미노)에탄올], the activity at 20 µM is reported as 78 ± 1.4%. `C=CCNc1nc(SC)nc2c1c(-c1ccccc1)nn2Cc1ccccc1` [32d, 1-벤질-3-페닐-4-알릴아미노-6-(메틸티오)피라졸로[3,4-d]피리미딘] was tested, and the activity at 20 µM was 46 ± 2%. `CSc1nc(NCc2ccc(F)cc2)c2cn[nH]c2n1` [6d, 4-(4-플루오로벤질)아미노-6-(메틸티오)피라졸로[3,4-d]피리미딘] was tested, and the activity at 20 µM was 84 ± 8%. For `COc1ccc([C@H](C)Nc2nc(SC)nc3c2cnn3Cc2ccccc2)cc1` [화합물 16zb, 1-벤질-N-((S)-1-(4-메톡시페닐)에틸)-6-(메틸티오)-1H-피라졸로[3,4-d]피리미딘-4-아민], the activity at 20 µM was 49 ± 2.4%. `CSc1nc(NCc2ccc(C)cc2)c2cnn(-c3ccc(F)cc3)c2n1` [화합물 20f, N-(4-메틸벤질)-1-(4-프루오로페닐)-6-(메틸티오)-1H-피라졸로[3,4-d]피리미딘-4-아민] showed an activity at 20 µM of 62 ± 3.8%. For `CSc1nc(NCc2ccc(Cl)cc2)c2cnn(CCNC(=O)OC(C)(C)C)c2n1` [화합물 14e, 2-(4-(4-클로로벤질아미노)-6-(메틸티오)-1H-피라졸로[3,4-d]피리미딘-1-일)에틸카바메이트], the activity at 20 µM was 26.8 ± 0.1%. Compound `C=CCn1ncc2c(NCCCC)nc(SC)nc21` [화합물 13l, 1-알릴-N-뷰틸-6-(메틸티오)-1H-피라졸로[3,4-d]피리미딘-4-아민] has an activity at 20 µM of 43.3 ± 1.1%. `COc1cccc(CCn2ncc3c(NCc4ccccc4Cl)nc(SC)nc32)c1` [화합물 18a, N-(2-클로로벤질)-1-(3-메톡시펜에틸)-6-(메틸티오)-1H-피라졸로[3,4-d]피리미딘-4-아민] showed an activity at 20 µM of 43 ± 18.1%. For `CC(Nc1nc(NCc2ccccc2)nc2c1cnn2Cc1ccccc1)c1ccccc1` (centres unmarked) [화합물 24e, N6,1-디벤질-N4-(1-페닐에틸)-1-벤질-1H-피라졸로[3,4-d]피리미딘-4,6-디아민], the activity at 20 µM was 41 ± 16.3%. `CSc1nc(NCc2ccc(F)cc2)c2cnn(C(C)(C)C)c2n1` [화합물 17c, 1-t-뷰틸-4-(4-플루오로벤질)아미노-6-(메틸티오)피라졸로[3,4-d]피리미딘] showed an activity at 20 µM of 59 ± 2%. For `CCCCNc1nc(SC)nc2c1cnn2CCNC(=O)OC(C)(C)C` [화합물 14i, 2-(4-(뷰틸아미노)-6-(메틸티오)-1H-피라졸로[3,4-d]피리미딘-1-일)에틸카바메이트], the activity at 20 µM was 54.2 ± 2.3%. For `COc1ccc(CNc2nc(SC)nc3c2cnn3CCc2ccccc2OC)cc1` [화합물 19b, 1-(2-메톡시펜에틸)-N-(4-메톡시벤질)-6-(메틸티오)-1H-피라졸로[3,4-d]피리미딘-4-아민], the activity at 20 µM was 27 ± 6.8%. `COc1ccccc1CCn1ncc2c(NCc3ccccc3Cl)nc(SC)nc21` [화합물 19h, N-(2-클로로벤질)-1-(2-메톡시펜에틸)-6-(메틸티오)-1H-피라졸로[3,4-d]피리미딘-4-아민] gave an activity at 20 µM of 18 ± 1.2%. Work on `COc1ccccc1CNc1nc(S(C)(=O)=O)nc2c1cnn2-c1ccc(F)cc1` [화합물 23i, N-(2-메톡시벤질)-1-(4-플루오로페닐)-6-(메틸설포닐)-1H-피라졸로[3,4-d]피리미딘-4-아민] yielded an activity at 20 µM of 35 ± 7.3%. `C=CCNc1nc(SC)nc2c1cnn2CC=C` [화합물 13b, 1-알릴-4-알릴아미노-6-(메틸티오)피라졸로[3,4-d]피리미딘] gave an activity at 20 µM of 86 ± 9%. With `CSc1nc(NC(C)C2CCCCC2)c2cnn(-c3ccccc3)c2n1` (centres unmarked) [화합물 15za, N-(1-사이클로헥실에틸)-6-(메틸티오)-1-페닐-1H-피라졸로[3,4-d]피리미딘-4-아민] the activity at 20 µM was 36 ± 0.7%. `CSc1nc(NCCCn2ccnc2)c2cnn(C)c2n1` [12d, 1-메틸-4-[3-(이미다졸-1-일)]프로필아미노-6-(메틸티오)피라졸로[3,4-d]피리미딘] was tested, and the activity at 20 µM was 75 ± 1%. Compound `COc1cccc(CCn2ncc3c(Cl)nc(SC)nc32)c1` [5j, 1-(3-메톡시펜에틸)-4-클로로-6-(메틸티오)-1H-피라졸로[3,4-d]피리미딘] has an activity at 20 µM of 5 ± 49.7%. With `COc1cccc(CNc2nc(SC)nc3c2cnn3Cc2ccccc2)c1` [화합물 16zf, N-(3-메톡시벤질)-1-벤질-6-(메틸티오)-1H-피라졸로[3,4-d]피리미딘-4-아민] the activity at 20 µM was 49 ± 0.6%. `COc1ccc(CNc2nc(SC)nc3c2cnn3C(C)(C)C)cc1` [화합물 17e, 1-t-뷰틸-4-(4-메톡시벤질)아미노-6-(메틸티오)피라졸로[3,4-d]피리미딘] was tested, and the activity at 20 µM was 21 ± 27%. Compound `CCCCCCCCSc1nc(SC)nc2c1cnn2Cc1ccccc1` [화합물 16v, 1-벤질-6-(메틸티오)-4-(옥틸티오)-1H-피라졸로[3,4-d]피리미딘] has an activity at 20 µM of 95 ± 4%. `COc1cccc(CCn2ncc3c(NCc4ccccc4OC)nc(S(C)(=O)=O)nc32)c1` [화합물 23x, N-(2-메톡시벤질)-1-(3-메톡시펜에틸)-6-(메틸설포닐)-1H-피라졸로[3,4-d]피리미딘-4-아민] was tested, and the activity at 20 µM was 35 ± 4.3%. For `COc1ccc(CNc2nc(S(C)(=O)=O)nc3c2cnn3CCc2ccccc2OC)cc1` [화합물 23za, 1-(2-메톡시펜에틸)-N-(4-메톡시벤질)-6-(메틸설포닐)-1H-피라졸로[3,4-d]피리미딘-4-아민], the activity at 20 µM was 56 ± 3.6%. In the case of `CSc1nc(NCc2ccc(F)cc2)c2cnn(-c3ccccc3)c2n1` [화합물 15e, 1-페닐-4-(4-플루오로벤질)아미노-6-(메틸티오)피라졸로[3,4-d]피리미딘], the activity at 20 µM is reported as 46 ± 10%. `COc1ccccc1CNc1nc([S+](C)[O-])nc2c1cnn2-c1ccc(F)cc1` (centres unmarked) [화합물 22e, N-(2-메톡시벤질)-1-(4-플루오로페닐)-6-(메틸설파이닐)-1-페닐-1H-피라졸로[3,4-d]피리미딘-4-아민] showed an activity at 20 µM of 31 ± 6.9%. Work on `COc1ccc(CNc2nc(SC)nc3c2cnn3-c2ccccc2)cc1` [화합물 15c, 1-페닐-4-(4-메톡시벤질)아미노-6-(메틸티오)피라졸로[3,4-d]피리미딘] yielded an activity at 20 µM of 61 ± 6%. Compound `CSc1nc(NCc2ccc(Cl)cc2)c2cn[nH]c2n1` [6p, 4-(4-클로로벤질)아미노-6-(메틸티오)피라졸로[3,4-d]피리미딘] has an activity at 20 µM of 50 ± 23%. For `CSc1nc(N2CCCCC2)c2cn[nH]c2n1` [6s, 4-피페리디노-6-(메틸티오)피라졸로[3,4-d]피리미딘], the activity at 20 µM was 85 ± 15%.

Same assay, conditions: Mus musculus, BV-2, 24 h, 30 μM, LPS 0.2 ㎍/mL, 24 h co-treatment, nitrite by Griess at 540 nm
Work on `CSc1nc(Cl)c2cnn(-c3ccc(F)cc3)c2n1` [5h, 1-(4-플루오로페닐)-4-클로로-6-(메틸티오)피라졸로[3,4-d]피리미딘] yielded an activity at 30 µM of 59.6%. Work on `COc1nc(SC)nc2[nH]nc(I)c12` [11d, 3-아이오도-4-메톡시-6-(메틸티오)피라졸로[3,4-d]피리미딘] yielded an activity at 30 µM of 91 ± 3%. `CSc1nc2[nH]ncc2c(=O)[nH]1` [8a, 6-(메틸티오)피라졸로[3,4-d]피리미딘-4-온] was tested, and the activity at 30 µM was 75 ± 0.9%.
